Converted amounts (≈) assume the structure as drawn. Read-outs that look alike come from different tables or passages of the source. Square brackets hold non-standard residues; d marks the D form. Peptide text beside a SMILES is read from it. N(1-naphthylmethyl)Gly = O=C(O)CNCc1cccc2ccccc12; 2Nal = N[C@@H](Cc1ccc2ccccc2c1)C(=O)O; d1Nal = N[C@H](Cc1cccc2ccccc12)C(=O)O; N(4-MeBn)Gly = Cc1ccc(CNCC(=O)O)cc1; dNle = CCCC[C@@H](N)C(=O)O; Nle = CCCC[C@H](N)C(=O)O; NBuGly = CCCCNCC(=O)O
Key:
[1] = system: Corynebacterium auriscanis, 31551; format: cell-based; conditions: 18 h
Source text: (§1) For antibacterial spectrum the following strains were used: Corynebacterium auriscanis, 31551, (54 C6, dog, ear, 2013); Enterococcus faecalis, 27404, (17 C7, dog, wound, 2011); Enterococcus faecium, 30951, (24 C1, dog, ear, 2013); Streptococcus canis, 26740-1, (14 H1, dog, ear, 2010); Staphylococcus aureus, 27266, (16 G9, dog, skin, 2010); Staphylococcus aureus, 27266, (16 G9, dog, skin, 2010); Staphylococcus pseudintermedius 22963, (3 B9, dog, 2007). Acinetobacter baumannii, 27065, (16 D1, dog, wound, 2010); E. coli, 30235, 23 A6, dog, wound, 2012; Klebsiella pneumoniae, 26233, (11 H5, dog, wound, 2010); Pasteurella canis, 31096, (24 C8, dog, skin, 2013); Proteus mirabilis, 25178, (9 A4, dog, ear, 2009); Pseudomonas aeruginosa 26314, 12 C5, dog, urine, 2010). MIC determination was performed by broth microdilution according to the Clinical and Laboratory Standard Institute (CLSI, […]-A3, 2008)[62]. In brief, each bacterial strain was diluted to concentration of 5 × 10^5 CFU/mL in Mueller Hinton broth II (MHB II) media (Oxoid) and added to a two-fold serial dilution of peptides and peptide-peptoid hybrids concentrations ranging from 1 to 64 μg/ml in 96-well plates (Nunc Internationals, Rochester, NY). The MICs were determined as a lowest concentration showing no visible growth after incubation for 18 hours at 37 °C. Experiments were performed in triplicates on two different days.

[2] = system: Enterococcus faecalis, 27404; format: cell-based; conditions: 27404, 18 h
Source text: as §1

[3] = system: Enterococcus faecium, 30951; format: cell-based; conditions: 30951, 18 h
Source text: as §1

Proteus mirabilis, 25178 = format: cell-based; conditions: 25178, 18 h
Source text: as §1

E. coli, 30235 = format: cell-based, Escherichia coli; conditions: 30235, 18 h
Source text: as §1

P. aeruginosa (26314) = format: cell-based, Pseudomonas aeruginosa
Procedure, shortened: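 Canine clinical isolate P. aeruginosa 26314 tested by CLSI broth microdilution at 5 × 10^5 CFU/mL in Mueller Hinton broth II against 2-fold peptide dilutions of 1-64 μg/ml. MIC = lowest concentration without visible growth after 18 h at 37 °C; triplicates on two days.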

S. aureus strains = format: cell-based, Staphylococcus aureus; conditions: 18 h
Source text: as §1, with “2010). […] 25054, (8 G6, dog, wound, 2009); 27266, (16 G9, dog, skin, 2010 also used in exp above); 28264,(20 B1, dog, wound, 2011); 30935, (24 B9, dog, joint, 2013); 36968, (61 A9, dog, wound, 2016); 37595,(65 D2, dog, joint, 2016); 37708-2, (66 C6, dog, skin, 2016); 38200, (68 E9, dog, skin, 2016); 38565-1, (70 A5, dog, skin, 2017); 38841, (70 G5, dog, urine, 2017).” for “2010).”

MIC Corynebacterium auriscanis [1] [µg/mL] | MIC Enterococcus faecalis [2] [µg/mL] | MIC Enterococcus faecium [3] [µg/mL] | MIC Proteus mirabilis (Proteus mirabilis, 25178) [µg/mL] | MIC E. coli (E. coli, 30235) [µg/mL] | MIC S. aureus strain 25054 (S. aureus strains) [µg/mL] | MIC S. aureus strain 27266 (S. aureus strains) [µg/mL] | MIC S. aureus strain 28264 (S. aureus strains) [µg/mL] | MIC S. aureus strain 30935 (S. aureus strains) [µg/mL] | MIC S. aureus strain 36968 (S. aureus strains) [µg/mL] | MIC S. aureus strain 37595 (S. aureus strains) [µg/mL] | MIC S. aureus strain 37708-2 (S. aureus strains) [µg/mL] | MIC S. aureus strain 38200 (S. aureus strains) [µg/mL] | MIC S. aureus strain 38565-1 (S. aureus strains) [µg/mL] | MIC Staphylococcus aureus (S. aureus strains) [µg/mL] | Structure (SMILES) | Minimum Inhibitory Concentration P. aeruginosa (26314) (P. aeruginosa (26314); Table 1) [µg/mL] | Minimum Inhibitory Concentration P. aeruginosa (26314) (P. aeruginosa (26314); 26314, 18 h) [µg/mL] | MICs for the three S. aureus isolates tested (S. aureus strains) [µg/mL]
32 (≈ 30.3 µM) | 64 (≈ 60.6 µM) | >64 | >64 | 32 (≈ 30.3 µM) | >64 | 64 (≈ 60.6 µM) | >64 | >64 | >64 | >64 | >64 | >64 | >64 | 64 (≈ 60.6 µM) | CCCC[C@@H](NC(=O)[C@H](CCCCN)NC(=O)[C@H](CCCCN)NC(=O)[C@@H](N)CCCCN)C(=O)N[C@H](Cc1cccc2ccccc12)C(=O)N[C@H](Cc1ccccc1)C(=O)N[C@H](Cc1cccc2ccccc12)C(N)=O [Compound 26, Lys-Lys-Lys-nle-(1-Nal)ala-phe-(1-Nal)ala] (H-KKK[dNle][d1Nal][dF][d1Nal]-NH2; N-terminus assumed) | 8 | – | –
8 (≈ 7.57 µM) | >64 | 64 (≈ 60.6 µM) | >64 | 32 (≈ 30.3 µM) | 64 (≈ 60.6 µM) | 32 to 64 | 64 (≈ 60.6 µM) | 64 (≈ 60.6 µM) | 64 (≈ 60.6 µM) | >64 | 32 (≈ 30.3 µM) | 64 (≈ 60.6 µM) | 64 (≈ 60.6 µM) | 32 (≈ 30.3 µM) | CCCC[C@H](NC(=O)[C@H](CCCCN)NC(=O)[C@H](CCCCN)NC(=O)[C@@H](N)CCCCN)C(=O)N[C@@H](Cc1ccc2ccccc2c1)C(=O)N[C@@H](Cc1ccccc1)C(=O)N[C@@H](Cc1ccc2ccccc2c1)C(N)=O [Compound 23, Lys-Lys-Lys-Nle-(2-Nal)Ala-Phe-(2-Nal)Ala] (H-KKK[Nle][2Nal]F[2Nal]-NH2) | 8 | – | –

Structure (SMILES) | MIC Corynebacterium auriscanis [1] [µg/mL] | MIC Enterococcus faecalis [2] [µg/mL] | MIC Enterococcus faecium [3] [µg/mL] | MIC Proteus mirabilis (Proteus mirabilis, 25178) [µg/mL] | MIC E. coli (E. coli, 30235) [µg/mL] | MIC S. aureus strain 25054 (S. aureus strains) [µg/mL] | MIC S. aureus strain 27266 (S. aureus strains) [µg/mL] | MIC S. aureus strain 28264 (S. aureus strains) [µg/mL] | MIC S. aureus strain 30935 (S. aureus strains) [µg/mL] | MIC S. aureus strain 36968 (S. aureus strains) [µg/mL] | MIC S. aureus strain 37595 (S. aureus strains) [µg/mL] | MIC S. aureus strain 37708-2 (S. aureus strains) [µg/mL] | MIC S. aureus strain 38200 (S. aureus strains) [µg/mL] | MIC S. aureus strain 38565-1 (S. aureus strains) [µg/mL] | MIC Staphylococcus aureus (S. aureus strains) [µg/mL] | Minimum Inhibitory Concentration P. aeruginosa (26314) (P. aeruginosa (26314); Table 1) [µg/mL] | Minimum Inhibitory Concentration P. aeruginosa (26314) (P. aeruginosa (26314); 26314, 18 h) [µg/mL] | MICs for the three S. aureus isolates tested (S. aureus strains) [µg/mL]
CCCCN(CC(=O)N[C@@H](CCCCN)C(=O)N(CC(=O)N(CC(=O)N(CC(N)=O)Cc1cccc2ccccc12)Cc1ccc(C)cc1)Cc1cccc2ccccc12)C(=O)[C@H](CCCCN)NC(=O)[C@@H](N)CCCCN [B1, Lys-Lys-(NBu)Gly-Lys-(N1-Nal)Gly-(N4-MeBn)Gly-(N1-Nal)Gly] (H-KK[NBuGly]K[N(1-naphthylmethyl)Gly][N(4-MeBn)Gly][N(1-naphthylmethyl)Gly]-NH2) | 4 (≈ 3.74 µM) | 64 (≈ 59.8 µM) | 16 (≈ 14.9 µM) | >64 | 64 (≈ 59.8 µM) | – | – | – | – | – | – | – | – | – | 8 (≈ 7.47 µM) | – | 8 to 16 | 4 to 8

Reference: publication PMC6403271, “Characterization, mechanism of action and optimization of activity of a novel peptide-peptoid hybrid against bacterial pathogens involved in canine skin infections” (Scientific Reports, 2019)
